Measurements reported in PMC10574094, “Discovery of a SHP2 Degrader with In Vivo Anti-Tumor Activity” (Molecules, 2023).
Residues, ends and D or L forms follow the SMILES beside them. *: point of attachment. Cbz = O=C(OCc1ccccc1)*

Key:
full-length SHP2 (1-528) = target: T1, full-length SHP2 (1-528) (Homo sapiens, UniProt Q06124); experiment: SHP2 allosteric inhibition assay (DiFMUP substrate); assay type: biochemical; details: full length SHP2, enzymatic assay
T1 construct: The SHP2 protein (Aa 1–528) was cloned into a pET-21a(+) vector; His; made in house; host or cells: E. coli BL21(DE3)
T1 sequence (Q06124 1-528): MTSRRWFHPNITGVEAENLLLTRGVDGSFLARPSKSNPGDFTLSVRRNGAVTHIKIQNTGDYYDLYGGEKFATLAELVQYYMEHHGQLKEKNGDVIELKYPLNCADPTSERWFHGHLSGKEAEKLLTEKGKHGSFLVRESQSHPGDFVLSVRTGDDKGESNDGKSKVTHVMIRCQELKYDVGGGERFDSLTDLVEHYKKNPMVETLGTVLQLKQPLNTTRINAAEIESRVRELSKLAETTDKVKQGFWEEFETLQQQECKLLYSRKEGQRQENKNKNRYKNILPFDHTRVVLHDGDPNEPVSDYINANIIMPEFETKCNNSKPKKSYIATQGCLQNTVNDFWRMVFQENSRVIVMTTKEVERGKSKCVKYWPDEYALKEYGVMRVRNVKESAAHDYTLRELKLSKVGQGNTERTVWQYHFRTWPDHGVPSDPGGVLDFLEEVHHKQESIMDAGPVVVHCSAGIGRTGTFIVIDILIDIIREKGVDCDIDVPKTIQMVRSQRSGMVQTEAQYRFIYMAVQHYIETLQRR
Protocol: The SHP2 protein (Aa 1–528) was cloned into a pET-21a(+) vector. Bacterial BL21(DE3) (Novagen) was used as an expression host, and the induction of protein expression was carried out in LB media with 1 mM IPTG at 18 °C overnight. Cell pellets were stored at −80 °C for subsequent protein purification. Protein purification was conducted at 4 °C. Frozen cell pellets were lysed by sonication in 40 mL cold lysis buffer (50 mM Tris-HCl, pH 8.0, 150 mM NaCl, 5 mM imidazole, and 1 mM PMSF) per liter cell pellet. Cell lysates were clarified by centrifuging for 15 min at 6000 rpm. The supernatant was incubated with HisPur Ni-NTA resin (Thermo Scientific, Waltham, MA, USA) for 2 h, and then packed onto a column and washed with 50 resin volume of buffer A (50 mM Tris-HCl, pH 8.0, 500 mM NaCl, 5 mM imidazole). The HIS-tagged proteins were eluted with Buffer B (50 mM Tris-HCl, pH = 8.0, 500 mM NaCl, 300 mM imidazole,). Pooled HIS-protein-containing fractions were concentrated, loaded onto a HiLoad 26/600 Superdex 75 column (GE Healthcare Biosciences, Piscataway, NJ, USA), and eluted with storage buffer (50 mM Tris-HCl, pH 8.0, 150 mM NaCl, 1 mM DTT, 10% glycerol). Proteins used for inhibition assays were purified using Ni-NTA resin (Qiagen, Hilden, Germany) followed by size exclusion column chromatography (ÄKTA pure, Cytiva, Marlborough, MA, USA) and the purity was determined to be >95% by SDS-PAGE and Coomassie staining. The protein was aliquoted and stored at −80 °C.
The catalytic activity of SHP2 (1-528) was assayed with 6,8-Difluoro-4-Methylumbelliferyl Phosphate (DiFMUP, Invitrogen, cat# D6567) as a substrate in 3,3-Dimethylglutaric acid (DMG) buffer (50 mM DMG, pH 7.0, 1 mM EDTA, 18 mM NaCl, 0.01% Triton X-100) at 25 °C. To determine the IC50 values, the assays were performed in 96-well plates (Corning Costar 3915). Series diluted compounds were incubated with 0.5 nM of SHP2 and 0.5 μM of peptide IRS1_pY1172(dPEG8)pY1222 (sequence H2N-LN(pY)IDLDLV(dPEG8)LST(pY)ASINFQK-amide). After 30 min incubation at room temperature, the substrate DiFMUP was added to the reaction (200 μM final concentration, total reaction volume is […]) and incubated at 25 °C for 10 min. The reaction was then quenched by adding 40 μL of 160 μM bpV(Phen) (Sigma–Aldrich, cat# SML0889) solution. The fluorescence signal was monitored with a CLARIOstar Plus Microplate Spectrophotometer (BMG Labtech) using excitation and emission wavelengths of 340 and 450 nm, respectively. The inhibitordose-response curves were analyzed using normalized IC50 regression curve fitting with control-based normalization. Data were fitted using Prism GraphPad 9.2.0.

SHP2 = target: T2, SHP2 (Homo sapiens, UniProt Q06124); experiment: SHP2 degradation by Western blotting in HEK293 cells; assay type: cell-based; set-up: endogenous in cells; host or cells: HEK293; details: for SHP2 degradation (in words) / Degradation at 1 μM / Degradation at 10 μM: HEK293 cells; for SHP2 degradation (in words): 1 and 10 µM; for Degradation at 1 μM / Degradation at 10 μM: 16 h treatment; for effect on P9-induced SHP2 degradation: HEK293, 16 h, 250 nM P9 in combination with 1 µM 3, 10 µM MG132, 1 µM MLN4924, 40 µM VHL-2 or 40 µM Lenalidomide
T2 sequence (Q06124 1-593): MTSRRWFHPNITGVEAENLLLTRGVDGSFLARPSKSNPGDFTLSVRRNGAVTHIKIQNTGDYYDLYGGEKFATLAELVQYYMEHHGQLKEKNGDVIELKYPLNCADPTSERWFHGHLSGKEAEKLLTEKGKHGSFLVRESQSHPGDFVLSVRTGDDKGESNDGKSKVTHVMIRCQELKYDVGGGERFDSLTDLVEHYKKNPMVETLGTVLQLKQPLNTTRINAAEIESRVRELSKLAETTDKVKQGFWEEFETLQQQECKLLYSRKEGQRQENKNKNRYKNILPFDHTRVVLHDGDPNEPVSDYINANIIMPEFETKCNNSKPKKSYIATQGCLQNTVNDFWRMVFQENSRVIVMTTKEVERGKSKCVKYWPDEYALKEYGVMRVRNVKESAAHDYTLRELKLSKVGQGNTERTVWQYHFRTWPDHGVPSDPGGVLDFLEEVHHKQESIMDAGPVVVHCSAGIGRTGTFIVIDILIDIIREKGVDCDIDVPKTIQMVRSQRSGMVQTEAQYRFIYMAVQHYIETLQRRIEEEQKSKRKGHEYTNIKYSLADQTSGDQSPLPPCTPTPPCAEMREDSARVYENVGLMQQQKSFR
Protocol: HEK293, SKBR3, U2OS, MCF7 and A549 cells were grown in DMEM supplemented with 10% FBS, penicillin (50 units/mL), and streptomycin (50 μg/mL) in a 37 °C incubator containing 5% CO2. […] For western-blot analysis, protein samples were separated by SDS-PAGE, transferred to nitrocellulose membranes, and incubated overnight at 4 °C with corresponding primary antibodies diluted in 5% BSA in phosphate-buffered saline Tween (PBST). SuperSignal™ West Pico PLUS (PI34580; Thermo Scientific) was used to visualize the antibodies in the bioanalytical imaging system (Azure Biosystems c500). […] Anti-PTP1B (ab244207) antibody was purchased from Abcam. For colony formation assay, a total of approximately 200–500 cells were seeded to each well in a 12-well plate.
Supplemental Figures, Schemes, and Tables:
Figure S1. Western blots of degradation assay for PROTAC screening. (A) Degradation assay of
compo un ds i n Table 1 at 1 μM fo r 16 hours in H EK29 3 cells. (B) Degradation assay of compounds in Table
1 at 10 μM for 16 hours in HEK293 cells. (C) Degradation assay of compounds in Table 2 at 1 μM for 16

Compound | IC50 (full-length SHP2 (1-528)) | Degradation at 1 μM (SHP2) | effect on P9-induced SHP2 degradation (SHP2) | also measured
Cc1ncsc1-c1ccc([C@H](C)NC(=O)[C@@H]2C[C@@H](O)CN2C(=O)[C@@H](NC(=O)CCOCCOCCOCCNC(=O)CCCCCC2(CN)CCN(c3cnc(Sc4cccc(Cl)c4Cl)c(N)n3)CC2)C(C)(C)C)cc1 [P3, (2S,4R)-1-((S)-22-(1-(6-amino-5-((2,3-dichlorophenyl)thio)pyrazin-2-yl)-4-(aminomethyl)piperidin-4-yl)-2-(tert-butyl)-4,17-dioxo-7,10,13-trioxa-3,16-diazadocosanoyl)-4-hydroxy-N-((S)-1-(4-(4-methylthiazol-5-yl)phenyl)ethyl)pyrrolidine-2-carboxamide] | 158 ± 26.5 nM | <10% | – | SHP2 degradation (in words) (SHP2): did not induce significant degradation of SHP2; Degradation at 10 μM (SHP2): <10%
Cc1ncsc1-c1ccc([C@H](C)NC(=O)[C@@H]2C[C@@H](O)CN2C(=O)[C@@H](NC(=O)CCCCCNC(=O)CCCCCC2(CN)CCN(c3cnc(Sc4cccc(Cl)c4Cl)c(N)n3)CC2)C(C)(C)C)cc1 [SC5, (2S,4R)-1-((S)-2-(6-(6-(1-(6-amino-5-((2,3-dichlorophenyl)thio)pyrazin-2-yl)-4-(aminomethyl)piperidin-4-yl)hexanamido)hexanamido)-3,3-dimethylbutanoyl)-4-hydroxy-N-((S)-1-(4-(4-methylthiazol-5-yl)phenyl)ethyl)pyrrolidine-2-carboxamide] | 139 ± 10.4 nM | <10% | – | SHP2 degradation (in words) (SHP2): negligible to modest degradation; Degradation at 10 μM (SHP2): <10%
Cc1ncsc1-c1ccc([C@H](C)NC(=O)[C@@H]2C[C@@H](O)CN2C(=O)[C@@H](NC(=O)CCCCCCCCCCNC(=O)CCCCCC2(CN)CCN(c3cnc(Sc4cccc(Cl)c4Cl)c(N)n3)CC2)C(C)(C)C)cc1 [SC10, (2S,4R)-1-((S)-2-(11-(6-(1-(6-amino-5-((2,3-dichlorophenyl)thio)pyrazin-2-yl)-4-(aminomethyl)piperidin-4-yl)hexanamido)undecanamido)-3,3-dimethylbutanoyl)-4-hydroxy-N-((S)-1-(4-(4-methylthiazol-5-yl)phenyl)ethyl)pyrrolidine-2-carboxamide] | 122 ± 19.1 nM | 36% | – | –
Cc1ncsc1-c1ccc([C@H](C)NC(=O)[C@@H]2C[C@@H](O)CN2C(=O)[C@@H](NC(=O)CCCCCCCN2CCN(C(=O)CCCCCC3(CN)CCN(c4cnc(Sc5cccc(Cl)c5Cl)c(N)n4)CC3)CC2)C(C)(C)C)cc1 [P7, (2S,4R)-1-((S)-2-(8-(4-(6-(1-(6-amino-5-((2,3-dichlorophenyl)thio)pyrazin-2-yl)-4-(aminomethyl)piperidin-4-yl)hexanoyl)piperazin-1-yl)octanamido)-3,3-dimethylbutanoyl)-4-hydroxy-N-((S)-1-(4-(4-methylthiazol-5-yl)phenyl)ethyl)pyrrolidine-2-carboxamide] | 119 ± 25.4 nM | – | – | –
CC(C)C[C@@H](C=O)NC(=O)[C@H](CC(C)C)NC(=O)[C@H](CC(C)C)NC(=O)OCc1ccccc1 [MG-132, reference compound] (Cbz-Leu-Leu-Leu-aldehyde) | – | – | markedly reduced the extent of SHP2 degradation | –
NCC1(CCCCCC(=O)O)CCN(c2cnc(Sc3cccc(Cl)c3Cl)c(N)n2)CC1 [compound 4] | 90 nM | – | – | –
Cc1ncsc1-c1ccc([C@H](C)NC(=O)[C@@H]2C[C@@H](O)CN2C(=O)[C@@H](NC(=O)CCCCCCCCN2CCN(C(=O)CCCCCC3(CN)CCN(c4cnc(Sc5cccc(Cl)c5Cl)c(N)n4)CC3)CC2)C(C)(C)C)cc1 [P8, (2S,4R)-1-((S)-2-(9-(4-(6-(1-(6-amino-5-((2,3-dichlorophenyl)thio)pyrazin-2-yl)-4-(aminomethyl)piperidin-4-yl)hexanoyl)piperazin-1-yl)nonanamido)-3,3-dimethylbutanoyl)-4-hydroxy-N-((S)-1-(4-(4-methylthiazol-5-yl)phenyl)ethyl)pyrrolidine-2-carboxamide] | 104 ± 9.3 nM | – | – | –
NS(=O)(=O)OC[C@@H]1C[C@@H](n2ccc3c(N[C@H]4CCc5ccccc54)ncnc32)C[C@@H]1O [MLN-4924, reference compound] | – | – | markedly reduced the extent of SHP2 degradation | –
Nc1cccc2c1CN(C1CCC(=O)NC1=O)C2=O (centres unmarked) [lenalidomide, reference compound] | – | – | did not affect the SHP2 degradation induced by P9 | –
Cc1ncsc1-c1ccc([C@H](C)NC(=O)[C@@H]2C[C@@H](O)CN2C(=O)[C@@H](NC(=O)CCCCCCCCCCN2CCN(C(=O)CCCCCC3(CN)CCN(c4cnc(Sc5cccc(Cl)c5Cl)c(N)n4)CC3)CC2)C(C)(C)C)cc1 [P10, (2S,4R)-1-((S)-2-(11-(4-(6-(1-(6-amino-5-((2,3-dichlorophenyl)thio)pyrazin-2-yl)-4-(aminomethyl)piperidin-4-yl)hexanoyl)piperazin-1-yl)undecanamido)-3,3-dimethylbutanoyl)-4-hydroxy-N-((S)-1-(4-(4-methylthiazol-5-yl)phenyl)ethyl)pyrrolidine-2-carboxamide] | 111 ± 8.2 nM | – | – | –
